Assay results from PMC4716659 (European journal of medicinal chemistry, 2015).
In brackets after ≈: the same amount, converted by molar mass.

Test system: methicillin-resistant Staphylococcus aureus (MRSA) ATCC 43300
Assay: MIC, broth microdilution
Type: cell-based
Settings: MRSA ATCC 43300
[1] = Staphylococcus aureus, ATCC43300|MRSA

Row | MIC [1] | MIC | SMILES
1 | > 45.8 µg/mL | – | CCCCc1ccc(-c2nc(C)c(C(=O)NC(=N)NC(=N)N)s2)cc1 [compound 10, 2-(4-Butylphenyl)-N-(N-carbamimidoylcarbamimidoyl)-4-methylthiazole-5-carboxamide]
2 | > 42.4 µg/mL | – | CCCCc1ccc(-c2nc(C)c(C(=O)NNC(=N)N)s2)cc1 [compound 11, 2-(2-(4-Butylphenyl)-4-methylthiazole-5-carbonyl)hydrazinecarboximidamide]
3 | 44.5 µg/mL (≈ 128 µM) | – | CCCCc1ccc(-c2nc(C)c(C(=O)NC[C@@H](O)CO)s2)cc1 [compound 12, (R)-2-(4-Butylphenyl)-N-(2,3-dihydroxypropyl)-4methylthiazole-5-carboxamide]
4 | 44.2 µg/mL (≈ 133 µM) | – | CCCCc1ccc(-c2nc(C)c(C(=O)NCN(C)C)s2)cc1 [compound 13, 2-(4-Butylphenyl)-N-[(dimethylamino)methyl]-4-methylthiazole-5-carboxamide]
5 | > 35.1 µg/mL | >37.0 µg/mL | CCCCc1ccc(-c2nc(C)c(/C(N)=N/O)s2)cc1 [compound 15, (Z)-2-(4-Butylphenyl)-N′-hydroxy-4-methylthiazole-5-carboximidamide]
6 | > 35.1 µg/mL | >38.3 µg/mL | CCCCc1ccc(-c2nc(C)c(-c3nnn[nH]3)s2)cc1 [compound 16, 2-(4-Butylphenyl)-4-methyl-5-(1H-tetrazol-5-yl)thiazole]
7 | – | >36.9 µg/mL | [H]/N=C(\N)NN=C(C)c1sc(-c2ccc(N)cc2)nc1C [compound 19, (E)-2-(1-(4-Methyl-2-(4-aminophenyl)thiazol-5-yl)ethylidene) hydrazinecarboximidamide]
8 | > 43.9 µg/mL | – | CC(=O)c1sc(-c2ccc(-c3cccc4ccccc34)cc2)nc1C [compound 24, 1-(4-Methyl-2-(4-(naphthalen-1-yl)phenyl)thiazol-5-yl)ethanone]
